The values that follow come from PubChem BioAssay (NCI).

Test systems include DU-145 prostate; HS 578T breast; IGROV1 ovarian; MDA-MB-435; OVCAR-8 ovarian; PC-3 prostate.
Holding throughout (assay): DTP human tumour cell line panel, 48 h

Structures are written as SMILES.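 Assay format: 96-well plates, 48-hour exposure. GI50 is the concentration that inhibits growth by half. TGI: total growth inhibition.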

As a reminder, the GI50 is the concentration that inhibits growth by half. As a reminder, the TGI is the concentration giving total growth inhibition. High values mean less potent growth arrest, low ones more potent growth arrest. In the case of `O=C(Nc1n[nH]c2nc(-c3ccco3)c(Br)cc12)C1CC1`, the GI50 with DU-145 prostate, in the assay on HS 578T breast, with IGROV1 ovarian, in the assay on MDA-MB-435, with OVCAR-8 ovarian and with PC-3 prostate was > 25 µM each time. Besides, the TGI in the assay with DU-145 prostate, in the assay on HS 578T breast, with IGROV1 ovarian, in the assay on MDA-MB-435, in the assay with OVCAR-8 ovarian and in the assay with PC-3 prostate was > 25 µM in each case.
Consider `Nc1cccc2c1C(=O)N(C1CCC(=O)NC1=O)C2=O` (configuration not stated), for which the GI50 in the assay on DU-145 prostate, with HS 578T breast, in the assay on IGROV1 ovarian, with MDA-MB-435, in the assay on OVCAR-8 ovarian and in the assay on PC-3 prostate was > 100 µM each time. The TGI in the assay with DU-145 prostate, with HS 578T breast, in the assay on IGROV1 ovarian, with MDA-MB-435, with OVCAR-8 ovarian and in the assay with PC-3 prostate was > 100 µM in each case.
As for `O=S(=O)(c1ccc(NC(=S)N/N=C/c2ccccc2O)cc1)N1CCCCC1`, the TGI in the assay on DU-145 prostate was > 47.4 µM; in the assay on HS 578T breast it was 40.5 µM; in the assay on IGROV1 ovarian, > 50.4 µM; in the assay with MDA-MB-435 it was 11.2 µM; in the assay on OVCAR-8 ovarian, 14.9 µM; in the assay with PC-3 prostate, 21.1 µM.
Consider `COc1cc(-c2cc(C(=O)N3CCN(C(=O)c4ccccc4NCc4ccco4)CC3)nc3cc(-c4ccccc4)nn23)cc(OC)c1OC`, for which the GI50 with HS 578T breast was 3.1 µM; with IGROV1 ovarian, 5.44 µM; in the assay with MDA-MB-435, 0.309 µM; in the assay on OVCAR-8 ovarian, 4.38 µM; in the assay with PC-3 prostate, 2.2 µM. In addition, the concentration for total growth inhibition (TGI) in the assay on HS 578T breast was > 29.3 µM; with IGROV1 ovarian it was > 100 µM; in the assay with MDA-MB-435, 1.61 µM; with OVCAR-8 ovarian it was > 100 µM; in the assay on PC-3 prostate, > 100 µM.
For `Cc1ccc2c(c1)NC(c1ccc(C(=O)O)cc1)c1cccn1-2` (configuration not stated), the TGI in the assay with DU-145 prostate is 71.4 µM; with MDA-MB-435, > 100 µM; in the assay with PC-3 prostate, > 100 µM.
For the compound `COc1ccccc1C(=O)/C=C/c1cc2cccc(OC)c2[nH]c1=O`, the GI50 was 0.0331 µM with DU-145 prostate; 0.0163 µM in the assay with HS 578T breast; 0.0523 µM with IGROV1 ovarian; 0.0392 µM with OVCAR-8 ovarian; 0.0503 µM in the assay with PC-3 prostate. For the same compound, the TGI was determined as 0.714 µM with DU-145 prostate; 10.8 µM in the assay with HS 578T breast; 2.36 µM in the assay on IGROV1 ovarian; 15 µM in the assay on OVCAR-8 ovarian; 2.27 µM in the assay on PC-3 prostate.
`O=C1/C(=C\c2ccc(Cl)cc2)CN(C(=S)Nc2ccccc2)C/C1=C\c1ccc(Cl)cc1`: the GI50 with DU-145 prostate is 1.11 µM; in the assay with HS 578T breast, 3 µM; in the assay on IGROV1 ovarian, 0.953 µM; with MDA-MB-435, 1.09 µM; with OVCAR-8 ovarian, 0.527 µM; with PC-3 prostate, 0.371 µM. Also, the TGI in the assay on DU-145 prostate is 3.48 µM; in the assay with HS 578T breast, 23.3 µM; in the assay on IGROV1 ovarian it was 2.87 µM; in the assay with MDA-MB-435, 3.01 µM; in the assay with OVCAR-8 ovarian, > 47.9 µM; with PC-3 prostate, 2.09 µM.
With `COc1cc2c3c(n(C)c(=O)c2cc1OC)-c1cc2c(cc1/C3=C\CCCCN)OCO2`, the GI50 with DU-145 prostate was 10.5 µM; in the assay with IGROV1 ovarian it was 3.12 µM; in the assay on MDA-MB-435 it was 5.56 µM; with OVCAR-8 ovarian, 3.77 µM; in the assay on PC-3 prostate it was 20 µM. The total growth inhibition concentration (TGI) turned out to be 31.4 µM in the assay on DU-145 prostate; 8.53 µM with IGROV1 ovarian; 20.3 µM with MDA-MB-435; 14.2 µM with OVCAR-8 ovarian; 62.1 µM in the assay with PC-3 prostate.
On to `C1CCC([PH+](C2CCCCC2)C2CCCCC2[PH+](C2CCCCC2)C2CCCCC2)CC1.[Au].[CH-]1CCCCC1C1CCCC[N-]1` (configuration not stated), for which the GI50 in the assay with DU-145 prostate is 0.401 µM; in the assay with OVCAR-8 ovarian, 0.278 µM; in the assay on PC-3 prostate, 0.249 µM. Besides, the TGI in the assay with DU-145 prostate is 2.44 µM; in the assay with OVCAR-8 ovarian it was > 100 µM; in the assay with PC-3 prostate it was 5.26 µM.
In the case of `O=C1CC(=O)N(C2CCCCC2)C(=O)N1c1ccccc1S(=O)(=O)Oc1ccccc1`, the TGI was > 100 µM in the assay with DU-145 prostate; 30.2 µM in the assay on IGROV1 ovarian; > 100 µM with MDA-MB-435; > 100 µM in the assay on OVCAR-8 ovarian; > 100 µM in the assay on PC-3 prostate.
Consider `COC(=O)Nc1nc2ccc(C(=O)c3ccc[nH]3)cc2[nH]1`, for which the TGI in the assay with DU-145 prostate was > 23.2 µM; in the assay with HS 578T breast it was > 100 µM; with IGROV1 ovarian, > 100 µM; in the assay with MDA-MB-435, 0.359 µM; in the assay with OVCAR-8 ovarian it was > 100 µM.
As for `O=C(c1cccs1)c1c(C(F)(F)F)n([O-])c2ccc(C(F)(F)F)cc2[n+]1=O`, the GI50 in the assay with DU-145 prostate is 0.234 µM; with IGROV1 ovarian, 0.132 µM; with MDA-MB-435, 0.564 µM; in the assay with OVCAR-8 ovarian, 0.116 µM; in the assay on PC-3 prostate it was 0.118 µM. The TGI in the assay with DU-145 prostate amounted to 0.576 µM; with IGROV1 ovarian, 0.278 µM; with MDA-MB-435, 1.19 µM; with OVCAR-8 ovarian, 0.479 µM; in the assay on PC-3 prostate, 0.259 µM.
On to `Cc1ccc(-c2c(C#N)c(N)nc(N3CCOCC3)c2C#N)o1`, for which the GI50 in the assay with DU-145 prostate was 43.5 µM; in the assay on HS 578T breast, 39.2 µM; in the assay on IGROV1 ovarian it was 21.6 µM; in the assay on OVCAR-8 ovarian, 72.6 µM; with PC-3 prostate it was 30.6 µM. For the same compound, the TGI is > 100 µM in the assay on DU-145 prostate; > 100 µM in the assay on HS 578T breast; 59.6 µM in the assay with IGROV1 ovarian; > 100 µM in the assay with OVCAR-8 ovarian; > 100 µM in the assay with PC-3 prostate.
As for `COc1cc(O)c(C(=O)/C=C/c2ccccc2)c(OC)c1`, the TGI with DU-145 prostate was 21 µM; in the assay with HS 578T breast, 18.2 µM; in the assay with IGROV1 ovarian, 17.4 µM; in the assay with MDA-MB-435 it was 25.5 µM; in the assay with OVCAR-8 ovarian, 10.1 µM.
Turning to `ClC(=Nc1cccc2ccccc12)N(c1ccccc1)c1ccccc1`, the TGI in the assay on DU-145 prostate, in the assay with HS 578T breast, with IGROV1 ovarian, in the assay with MDA-MB-435 and with PC-3 prostate was > 100 µM throughout.
As for `CC12OC(C(=O)C13CC3)C1C(=O)c3ccccc3C(=O)C12` (configuration not stated), the GI50 with HS 578T breast is 22.6 µM; in the assay with IGROV1 ovarian, 23.1 µM; with MDA-MB-435, 41.4 µM; with OVCAR-8 ovarian, 20.3 µM; in the assay with PC-3 prostate, 19.8 µM. Also, the TGI in the assay with HS 578T breast was 63.9 µM; in the assay with IGROV1 ovarian, 65.9 µM; in the assay on MDA-MB-435, > 100 µM; in the assay on OVCAR-8 ovarian, 48.4 µM; in the assay on PC-3 prostate, 52.9 µM.
For the compound `COc1cc2cc(Oc3ccc(NC(=O)Nc4cccc(C(F)(F)F)c4)cc3)c(C)nc2cc1OCCN1CCCCC1`, the GI50 with DU-145 prostate is 1.68 µM; in the assay with MDA-MB-435, 1.59 µM; with PC-3 prostate, 1.41 µM. The TGI in the assay on DU-145 prostate was determined as 3.06 µM; in the assay with MDA-MB-435, 2.94 µM; with PC-3 prostate, 2.77 µM.
